Experimental data as given in patent US6110965A, “Ketolides from the class of 15-membered lactams” (PLIVA, farmaceutska, kemijska, prehrambena i kozmeticka …, priority 1998, dated 2000).
In brackets after ≈: the same amount, converted by molar mass. Read-outs that look alike come from different tables or passages of the source.

Assays:
[1] = tested on: Listeria monocytogenes ATCC 7644; experiment: Antibacterial in vitro action (MIC), microdilution process according to NCCLS; format: cell-based
[2] = tested on: Staphylococcus aureus ATCC 25923; experiment: as above; format: cell-based
[3] = tested on: Staphylococcus epidermidis ATCC 12228; experiment: as above; format: cell-based
[4] = tested on: Enterococcus faecalis ATCC 35550; experiment: as above; format: cell-based
[5] = tested on: Streptococcus pneumoniae ATCC 6305; experiment: as above; format: cell-based
[6] = tested on: Streptococcus pyogenes ATCC 19615; experiment: as above; format: cell-based
[7] = tested on: Clostridium perfringens ATCC 13124; experiment: microbe, parasite or virus in culture; format: cell-based; conditions: ATCC13124, read-out: Antibacterial in vitro action (MIC, mg/l)
[8] = tested on: Moraxella catarrhalis ATCC 25238; experiment: Antibacterial in vitro action (MIC), microdilution process according to NCCLS; format: cell-based
[9] = tested on: Campylobacter fetus ATCC 19438; experiment: as above; format: cell-based
[10] = tested on: Campylobacter jejuni ATCC 33291; experiment: as above; format: cell-based
[11] = tested on: Citroobacter freundii ATCC 8090; experiment: as above; format: cell-based; conditions: read-out: Antibacterial in vitro action (MIC, mg/l)
[12] = tested on: Escherichia coli ATCC 25922; experiment: as above; format: cell-based; conditions: ATCC25922, read-out: Antibacterial in vitro action (MIC, mg/l)
[13] = tested on: Proteus mirabilis ATCC 12453; experiment: as above; format: cell-based
[14] = tested on: Proteus mirabilis ATCC 43071; experiment: as above; format: cell-based
[15] = tested on: Salmonella choleraesuis ATCC 13076; experiment: as above; format: cell-based; conditions: Salmonella enterica, read-out: Antibacterial in vitro action (MIC, mg/l)
[16] = tested on: Shigella flexneri ATCC 12022; experiment: as above; format: cell-based; conditions: ATCC12022, read-out: Antibacterial in vitro action (MIC, mg/l)
Method: Antibacterial in vitro action of the new compounds of the general formula (I), wherein A, B, R^1, R^2 and R^3 have the above-mentioned meanings, and of their pharmaceutically acceptable addition salts with inorganic or organic acids was determined on a series of standard test microorganisms and clinical isolates by microdilution process according to the protocol NCCLS (The National Commitee for Clinical Laboratory Standards, Document M7-A2, Vol. 10, No. 8, 1990 and Document M11-A2, Vol. 10, 15,1991). The control of the laboratory process was performed by means of control strain Staphyloccocus aureus ATTC 29213 (The American Type Culture Collection) according to protocol NCCLS (Document M7-A2, Table 3, M100-S4).
The antibacterial in vitro action on a series of standard test microorganisms for 6-O-methyl-8a-aza-8a-homoerythromycin A from Example 3 in comparison with azithromycin, erythromycin and clarithromycin is represented in Table 1.

[17] = tested on: Yersinia enterocolitica ATCC 9610; experiment: as above; format: cell-based
[18] = tested on: Haemophilus influenzae ATCC 49247; experiment: as above; format: cell-based
[19] = tested on: Haemophilus influenzae ATCC 49766; experiment: as above; format: cell-based
[20] = tested on: Pseudomonas aeruginosa ATCC 25619; experiment: as above; format: cell-based
[21] = in vivo; cited from earlier work
human phagocyte cells = conditions: cited from earlier work
gram-negative bacteria = conditions: cited from earlier work
[22] = oral preparations; cited from earlier work
[23] = compared to erythromycin A; cited from earlier work
[24] = tested on: gram-positive bacterial strains; conditions: compared to erythromycin A; cited from earlier work
[25] = Listeria monocytogenes, ATCC7644, read-out: Antibacterial in vitro action (MIC, mg/l)
[26] = ATCC25923, Staphylococcus aureus ATCC 25923, read-out: Antibacterial in vitro action (MIC, mg/l)
[27] = ATCC12228, Staphylococcus epidermidis ATCC 12228, read-out: Antibacterial in vitro action (MIC, mg/l)
[28] = ATCC35550, Enterococcus faecalis ATCC 35550, read-out: Antibacterial in vitro action (MIC, mg/l)
[29] = Streptococcus pneumoniae, ATCC6305, read-out: Antibacterial in vitro action (MIC, mg/l)
[30] = Streptococcus pyogenes, ATCC19615, read-out: Antibacterial in vitro action (MIC, mg/l)
[31] = Moraxella catarrhalis, ATCC25238, read-out: Antibacterial in vitro action (MIC, mg/l)
[32] = Campylobacter fetus, ATCC19438, read-out: Antibacterial in vitro action (MIC, mg/l)
[33] = Campylobacter jejuni, ATCC33291, read-out: Antibacterial in vitro action (MIC, mg/l)
[34] = Citroobacter freundii ATCC 8090
[35] = ATCC12453, Proteus mirabilis ATCC 12453, read-out: Antibacterial in vitro action (MIC, mg/l)
[36] = ATCC43071, Proteus mirabilis ATCC 43071, read-out: Antibacterial in vitro action (MIC, mg/l)
[37] = Salmonella choleraesuis ATCC 13076
[38] = ATCC9610, Yersinia enterocolitica ATCC 9610, read-out: Antibacterial in vitro action (MIC, mg/l)
[39] = ATCC49247, Haemophilus influenzae ATCC 49247, read-out: Antibacterial in vitro action (MIC, mg/l)
[40] = ATCC49766, Haemophilus influenzae ATCC 49766, read-out: Antibacterial in vitro action (MIC, mg/l)
[41] = ATCC25619, Pseudomonas aeruginosa ATCC 25619, read-out: Antibacterial in vitro action (MIC, mg/l)

Structure (SMILES) | MIC [1, 25] | MIC [2, 26] | MIC [3, 27] | MIC [4, 28] | MIC [5, 29] | MIC [6, 30] | MIC [7] | MIC [8, 31] | MIC [9, 32] | MIC [10, 33] | MIC [11, 34] | MIC [12] | MIC [13, 35] | MIC [14, 36] | MIC [15, 37] | MIC [16] | MIC [17, 38] | MIC [18, 39] | MIC [19, 40] | MIC [20, 41] | also measured
CC[C@H]1OC(=O)[C@H](C)[C@@H](O[C@H]2C[C@@](C)(OC)[C@@H](O)[C@H](C)O2)[C@H](C)[C@@H](O[C@@H]2O[C@H](C)C[C@H](N(C)C)[C@H]2O)[C@](C)(O)C[C@@H](C)CN(C)[C@H](C)[C@@H](O)[C@]1(C)O [Az, 9-deoxo-9a-methyl-9a-aza-9a-homoerythromycin A] | < 0.125 mg/L | 0.5 mg/L (≈ 0.668 µM) | 1 mg/L (≈ 1.34 µM) | 0.5 mg/L (≈ 0.668 µM) | < 0.125 mg/L | < 0.125 mg/L | 0.125 mg/L (≈ 0.167 µM) | < 0.125 mg/L | < 0.125 mg/L | < 0.125 mg/L | 4 mg/L (≈ 5.34 µM) | 2 mg/L (≈ 2.67 µM) | 64 mg/L (≈ 85.4 µM) | 64 mg/L (≈ 85.4 µM) | 2 mg/L (≈ 2.67 µM) | 1 mg/L (≈ 1.34 µM) | 1 mg/L (≈ 1.34 µM) | 0.5 mg/L (≈ 0.668 µM) | 1 mg/L (≈ 1.34 µM) | 64 mg/L (≈ 85.4 µM) | biological half-time [21]: long biological half-time; penetration and accumulation within human phagocyte cells (human phagocyte cells): able to penetrate and to accumulate within human phagocyte cells; antimicrobial spectrum (gram-negative bacteria): broad antimicrobial spectrum including gram-negative bacteria
CC[C@H]1OC(=O)[C@H](C)[C@@H](O[C@H]2C[C@@](C)(OC)[C@@H](O)[C@H](C)O2)[C@H](C)[C@@H](O[C@@H]2O[C@H](C)C[C@H](N(C)C)[C@H]2O)[C@](C)(O)C[C@@H](C)C(=O)[C@H](C)[C@@H](O)[C@]1(C)O [Er, erythromycin A] | < 0.125 mg/L | – | – | – | < 0.125 mg/L | < 0.125 mg/L | 0.5 mg/L (≈ 0.681 µM) | < 0.125 mg/L | < 0.125 mg/L | < 0.125 mg/L | – | 32 mg/L (≈ 43.6 µM) | – | – | – | 32 mg/L (≈ 43.6 µM) | – | – | – | – | MIC ([2]; Staphylococcus aureus, ATCC25923, read-out: Antibacterial in vitro action (MIC, mg/l)): 0.25 mg/L (≈ 0.341 µM); MIC ([3]; Staphylococcus epidermidis, ATCC12228, read-out: Antibacterial in vitro action (MIC, mg/l)): 0.25 mg/L (≈ 0.341 µM); MIC ([4]; Enterococcus faecalis, ATCC35550, read-out: Antibacterial in vitro action (MIC, mg/l)): 1 mg/L (≈ 1.36 µM); MIC [11]: 64 mg/L (≈ 87.2 µM); MIC ([13]; Proteus mirabilis, ATCC12453, read-out: Antibacterial in vitro action (MIC, mg/l)): > 128 mg/L; MIC ([14]; Proteus mirabilis, ATCC43071, read-out: Antibacterial in vitro action (MIC, mg/l)): > 128 mg/L; MIC [15]: 64 mg/L (≈ 87.2 µM); MIC ([17]; Yersinia enterocolitica, ATCC9610, read-out: Antibacterial in vitro action (MIC, mg/l)): 16 mg/L (≈ 21.8 µM); MIC ([18]; Haemophilus influenzae, ATCC49247, read-out: Antibacterial in vitro action (MIC, mg/l)): 2 mg/L (≈ 2.73 µM); MIC ([19]; Haemophilus influenzae, ATCC49766, read-out: Antibacterial in vitro action (MIC, mg/l)): 4 mg/L (≈ 5.45 µM); MIC ([20]; Pseudomonas aeruginosa, ATCC25619, read-out: Antibacterial in vitro action (MIC, mg/l)): > 128 mg/L; gastric intolerance [22]: gastric intolerance in many patients
CC[C@H]1OC(=O)[C@H](C)[C@@H](O[C@H]2C[C@@](C)(OC)[C@@H](O)[C@H](C)O2)[C@H](C)[C@@H](O[C@@H]2O[C@H](C)C[C@H](N(C)C)[C@H]2O)[C@](C)(OC)C[C@@H](C)NC(=O)[C@H](C)[C@@H](O)[C@]1(C)O [Example 3, 6-O-methyl-8a-aza-8a-homoerythromycin A] | – | 0.5 mg/L (≈ 0.655 µM) | 0.5 mg/L (≈ 0.655 µM) | 1 mg/L (≈ 1.31 µM) | – | – | 0.25 mg/L (≈ 0.328 µM) | – | – | – | 16 mg/L (≈ 21 µM) | 8 mg/L (≈ 10.5 µM) | 32 mg/L (≈ 41.9 µM) | 32 mg/L (≈ 41.9 µM) | 8 mg/L (≈ 10.5 µM) | 4 mg/L (≈ 5.24 µM) | 4 mg/L (≈ 5.24 µM) | 1 mg/L (≈ 1.31 µM) | 1 mg/L (≈ 1.31 µM) | 32 mg/L (≈ 41.9 µM) | MIC ([1]; ATCC7644, Listeria monocytogenes ATCC 7644, read-out: Antibacterial in vitro action (MIC, mg/l)): < 0.125 mg/L; MIC ([5]; ATCC6305, Streptococcus pneumoniae ATCC 6305, read-out: Antibacterial in vitro action (MIC, mg/l)): < 0.125 mg/L; MIC ([6]; ATCC19615, Streptococcus pyogenes ATCC 19615, read-out: Antibacterial in vitro action (MIC, mg/l)): < 0.125 mg/L; MIC ([8]; ATCC25238, Moraxella catarrhalis ATCC 25238, read-out: Antibacterial in vitro action (MIC, mg/l)): < 0.125 mg/L; MIC ([9]; ATCC19438, Campylobacter fetus ATCC 19438, read-out: Antibacterial in vitro action (MIC, mg/l)): < 0.125 mg/L; MIC ([10]; ATCC33291, Campylobacter jejuni ATCC 33291, read-out: Antibacterial in vitro action (MIC, mg/l)): < 0.125 mg/L
CC[C@H]1OC(=O)[C@H](C)[C@@H](O[C@H]2C[C@@](C)(OC)[C@@H](O)[C@H](C)O2)[C@H](C)[C@@H](O[C@@H]2O[C@H](C)C[C@H](N(C)C)[C@H]2O)[C@](C)(OC)C[C@@H](C)C(=O)[C@H](C)[C@@H](O)[C@]1(C)O [Cl, 6-O-methyl-erythromycin A] | < 0.125 mg/L | 0.5 mg/L (≈ 0.668 µM) | 0.25 mg/L (≈ 0.334 µM) | 0.25 mg/L (≈ 0.334 µM) | < 0.125 mg/L | < 0.125 mg/L | 0.125 mg/L (≈ 0.167 µM) | < 0.125 mg/L | < 0.125 mg/L | < 0.125 mg/L | 64 mg/L (≈ 85.6 µM) | 32 mg/L (≈ 42.8 µM) | 128 mg/L (≈ 171 µM) | > 128 mg/L | 32 mg/L (≈ 42.8 µM) | 32 mg/L (≈ 42.8 µM) | 16 mg/L (≈ 21.4 µM) | 4 mg/L (≈ 5.35 µM) | 8 mg/L (≈ 10.7 µM) | > 128 mg/L | stability in acidic medium [23]: considerably more stable in acidic medium; in vitro activity against gram-positive bacterial strains [24]: increased in vitro activity against gram-positive bacterial strains
